The text below walks through data of US12661410B2, “Compounds for targeted degradation of RET” (C4 Therapeutics, Inc., priority 2020, dated 2026).

Where a chain is given by its changes, count along the chain named. Like-named read-outs stand apart in the source and are kept apart here.

One test addresses T1, RET (658-1114) (Homo sapiens, UniProt P07949).
T1 construct: 658-1114; expressed in transfected cells; host or cells: 293T.144 (293T cells, generated in-house)
T1 sequence (P07949 658-1114): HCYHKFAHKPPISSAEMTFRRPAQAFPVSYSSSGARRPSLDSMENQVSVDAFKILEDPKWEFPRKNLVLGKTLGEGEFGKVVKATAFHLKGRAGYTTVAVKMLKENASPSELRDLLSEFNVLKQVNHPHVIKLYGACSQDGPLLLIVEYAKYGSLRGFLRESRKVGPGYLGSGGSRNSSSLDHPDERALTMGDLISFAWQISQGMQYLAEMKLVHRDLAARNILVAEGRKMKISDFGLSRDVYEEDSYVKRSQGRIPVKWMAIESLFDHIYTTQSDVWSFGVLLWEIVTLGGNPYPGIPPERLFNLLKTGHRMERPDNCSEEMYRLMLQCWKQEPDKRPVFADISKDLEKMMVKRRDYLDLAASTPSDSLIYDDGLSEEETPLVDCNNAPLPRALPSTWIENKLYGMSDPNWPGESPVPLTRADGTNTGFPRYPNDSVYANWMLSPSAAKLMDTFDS
Nature of the test: HiBiT-Degradation, RET wild-type degradation assay (Nano-Glo HiBiT Lytic), 293T.144 cells. In kind it is cell-based. The following applies: HiBiT-Degradation; for DC50 / Emax: 6.0 hours; for DC50: read-out: 293T.144 RET (658-1114) 6.0 hours (DC50); for Emax: read-out: 293T.144 RET (658-1114) 6.0 hours (Emax). An outline of the steps: (§1)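 HEK293T lines stably expressing HiBiT-tagged RET kinase domain (WT: 293T.144; G810R: 293T.165) were treated with degraders for 6 h in duplicate, 11-point half-log series from 10 μM top dose. Lysis with Nano-Glo HiBiT Lytic reagent, luminescence read; DC50 and Emax (% remaining protein) derived from dose-response curves.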

For the next test, the target named is T2, RET(KD: 658-1114 G810R) (Homo sapiens, UniProt P07949, G810R).
T2 construct: 658-1114; expressed in transfected cells; host or cells: 293T.165 (293T cells, generated in-house)
T2 sequence (P07949 658-1114 G810R): T1 sequence (P07949 658-1114) with G153R
The test can be described thus: HiBiT-Degradation, RET G810R degradation assay (Nano-Glo HiBiT Lytic), 293T.165 cells. In kind it is cell-based. The following applies: for Emax / DC50: 6.0 hours; for Emax: % remaining protein, read-out: 293T.165 RET(KD: 658-1114 G810R) 6.0 hours (Emax); for DC50: read-out: 293T.165 RET(KD: 658-1114 G810R) 6.0 hours (DC50). In outline:
as §1

[1] abbreviates: half-maximal degradation concentration.

Broadly, the DC50 is the concentration giving 50% degradation. The Emax is the greatest response seen or fitted, relative to the assay's reference. For the compound `CCC1(C(=O)NC(C)C)CCN(c2ccc(-c3nc(-c4cnn(C5CCN(C(=O)CC6(O)CCN(c7ccc(NC8CCC(=O)NC8=O)cc7F)CC6)CC5)c4)cn4ncc(C#N)c34)cn2)CC1` (centres unmarked) [Compound 30, 1-(5-(3-Cyano-6-(1-(1-(2-(1-(4-((2,6-dioxopiperidin-3-yl)amino)-2-fluorophenyl)-4-hydroxypiperidin-4-yl)acetyl)piperidin-4-yl)-1H-pyrazol-4-yl)pyrazolo[1,5-a]pyrazin-4-yl)pyridin-2-yl)-4-ethyl-N-isopropylpiperidine-4-carboxamide], on RET (658-1114), the “293T.144 RET (658-1114) 6.0 hours (IP) [nM]” value (shortened to “293T.144 RET”) is recorded as “++++ (< 50 nM = ++++)”, the DC50 is less than 50 nM and the maximal response (Emax) is less than 30%. Besides, the maximum response (Emax) at RET(KD: 658-1114 G810R) was less than 50%. Further, the half-maximal degradation concentration (DC50) at RET(KD: 658-1114 G810R) (setting [1]) was less than 50 nM. For the same compound, at RET(KD: 658-1114 G810R) (HiBiT-Degradation), the “293T.165 RET(KD: 658-1114 G810R) 6.0 hours (Emax)” value is “+++ (<50% = +++)”, the “293T.165 RET(KD: 658-1114 G810R) 6.0 hours (IP) [nM]” value is on record as “++++ (< 50 nM = ++++)” and the DC50 was less than 50 nM.
`CCC1(C(=O)NC(C)C)CCN(c2ccc(-c3nc(-c4cnn(C5CCN(C(=O)CN6CCC(c7ccc(NC8CCC(=O)NC8=O)cc7)CC6)CC5)c4)cn4ncc(C#N)c34)cn2)CC1` (centres unmarked) [Compound 31, 1-(5-(3-Cyano-6-(1-(1-(2-(4-(4-((2,6-dioxopiperidin-3-yl)amino)phenyl)piperidin-1-yl)acetyl)piperidin-4-yl)-1H-pyrazol-4-yl)pyrazolo[1,5-a]pyrazin-4-yl)pyridin-2-yl)-4-ethyl-N-isopropylpiperidine-4-carboxamide]: at RET (658-1114), the “293T.144 RET” value was “++++ (< 50 nM = ++++)”, the DC50 is less than 50 nM and the Emax is less than 30%. For the same compound, the Emax at RET(KD: 658-1114 G810R) was less than 30%. Besides, on RET(KD: 658-1114 G810R) (setting [1]), the 50% degradation concentration (DC50) was less than 50 nM. At RET(KD: 658-1114 G810R) (HiBiT-Degradation), the “293T.165 RET(KD: 658-1114 G810R) 6.0 hours (Emax)” value is recorded as “++++ (< 30% = ++++)”, the “293T.165 RET(KD: 658-1114 G810R) 6.0 hours (IP) [nM]” value was “++++ (< 50 nM = ++++)” and the half-maximal degradation concentration (DC50) is less than 50 nM.
On to `CC(C)NC(=O)C1(C)CCN(c2ccc(-c3cc(-c4ccc(N5CCN(C(=O)CC6(O)CCN(c7ccc(NC8CCC(=O)NC8=O)cc7F)CC6)CC5)cc4)cn4ncc(C#N)c34)cn2)CC1` (centres unmarked) [Compound 32, 1-(5-(3-Cyano-6-(4-(4-(2-(1-(4-((2,6-dioxopiperidin-3-yl)amino)-2-fluorophenyl)-4-hydroxypiperidin-4-yl)acetyl)piperazin-1-yl)phenyl)pyrazolo[1,5-a]pyridin-4-yl)pyridin-2-yl)-N-isopropyl-4-methylpiperidine-4-carboxamide], for which, on RET (658-1114), the “293T.144 RET” value is “++++ (< 50 nM = ++++)”, the half-maximal degradation concentration (DC50) was less than 50 nM and the Emax was less than 30%. In addition, the Emax on RET(KD: 658-1114 G810R) is less than 50%. Besides, at RET(KD: 658-1114 G810R) (setting [1]), the half-maximal degradation concentration (DC50) is less than 50 nM. Moreover, at RET(KD: 658-1114 G810R) (HiBiT-Degradation), the “293T.165 RET(KD: 658-1114 G810R) 6.0 hours (Emax)” value is reported as “+++ (<50% = +++)”, the “293T.165 RET(KD: 658-1114 G810R) 6.0 hours (IP) [nM]” value was “++++ (< 50 nM = ++++)” and the half-maximal degradation concentration (DC50) is less than 50 nM.
As for `CC(C)NC(=O)C1(C)CCN(c2ccc(-c3cc(-c4cnn([C@H]5CC[C@H](CCN6CCC(c7ccc(NC8CCC(=O)NC8=O)cc7F)CC6)CC5)c4)cn4ncc(C#N)c34)cn2)CC1` (some centres unmarked) [Compound 34, 1-(5-(3-Cyano-6-(1-((1r,4r)-4-(2-(4-(4-((2,6-dioxopiperidin-3-yl)amino)-2-fluorophenyl)piperidin-1-yl)ethyl)cyclohexyl)-1H-pyrazol-4-yl)pyrazolo[1,5-a]pyridin-4-yl)pyridin-2-yl)-N-isopropyl-4-methylpiperidine-4-carboxamide], at RET (658-1114), the “293T.144 RET” value is reported as “++++ (< 50 nM = ++++)”, the DC50 was less than 50 nM and the maximal response (Emax) was less than 30%. For the same compound, the maximal response (Emax) at RET(KD: 658-1114 G810R) is less than 30%. Also, the half-maximal degradation concentration (DC50) on RET(KD: 658-1114 G810R) (setting [1]) is less than 50 nM. At RET(KD: 658-1114 G810R) (HiBiT-Degradation), the “293T.165 RET(KD: 658-1114 G810R) 6.0 hours (Emax)” value is on record as “++++ (< 30% = ++++)”, the “293T.165 RET(KD: 658-1114 G810R) 6.0 hours (IP) [nM]” value is listed as “++++ (< 50 nM = ++++)” and the DC50 is less than 50 nM.
